{
  "source": "paper PMC4250329",
  "about": "(Bioorganic & medicinal chemistry letters, 2014)",
  "key": {"[1]": {"test_system": "IL-6-induced STAT3 tyrosine phosphorylation and nuclear translocation", "experiment": "High content screen", "format": "cell-based", "conditions": "for SI (STAT1/STAT3), selectivity index ratio: Table 3; for selectivity against pSTAT1 / activity (STAT3): summary of Table 3"}, "[2]": {"test_system": "IFNγ-induced activation of the STAT1 pathway", "experiment": "HCS of IFNγ-induced STAT1 pathway activation", "conditions": "for inhibition at 50 µM: read-out: inhibition of IFNγ-induced STAT1 activation"}, "[3]": {"test_system": "four HNSCC cell lines (CAL33, FADU, 686 LN, OSC19)", "experiment": "Anti-proliferative activity in panel of HNSCC cell lines", "format": "cell-based"}, "panel of >80 kinases": {"test_system": "panel of >80 kinases", "experiment": "Kinase panel", "format": "biochemical", "conditions": "data not shown"}, "JAK1": {"test_system": "JAK1", "experiment": "Western blot of pJAK1/JAK1", "format": "cell-based", "conditions": "Western blot analysis"}, "JAK2": {"test_system": "JAK2", "experiment": "Western blot of pJAK2/JAK2", "format": "cell-based", "conditions": "Western blot analysis"}, "[4]": {"conditions": "read-out: anti-proliferative activity"}},
  "note": "Entries after “also recorded” stand apart in the source; their conditions may differ. Like-named read-outs stand apart in the source and are kept apart here.",
  "data": [
    {"smiles": "Cc1cc(C)c2nc(Nc3nc(C)c(C)c(O)n3)nc(C)c2c1", "note": "[19b]", "values": [
      {"measurement": "SI (STAT1/STAT3), selectivity index ratio", "setting": "[1]", "result": ">7"},
      {"measurement": "selectivity against pSTAT1", "setting": "[1]", "result": "≥ 3", "unit": "fold"}
    ]},
    {"smiles": "CCOc1ccc2nc(Nc3nc(=O)cc(C)[nH]3)nc(C)c2c1", "note": "[19e]", "values": [
      {"measurement": "activity (STAT3)", "setting": "[1]", "result": "completely abolished activity"}
    ]},
    {"smiles": "CC1=CC(C)(C)N=C(Nc2nc(C)c3cc(C)ccc3n2)N1", "note": "[11b]", "values": [
      {"measurement": "inhibition at 50 µM", "setting": "[2]", "result": "< 50", "unit": "%"},
      {"measurement": "improved potency compared to the original hit 11a", "setting": "[1]; STAT3, text b9", "result": 4, "unit": "fold"},
      {"measurement": "potency against STAT3", "setting": "[1]; summary b20", "result": "low-micromolar potency"},
      {"measurement": "IC50", "setting": "[3]; [4]", "result": "1 to 50", "unit": "µM"}
    ]},
    {"smiles": "Cc1[nH]c(Nc2nc(C)c3cc4c(cc3n2)OCO4)nc(=O)c1C", "note": "[19p]", "values": [
      {"measurement": "activity (STAT3)", "setting": "[1]", "result": "completely abolished activity"}
    ]},
    {"smiles": "CCOc1ccc2nc(NC3=NC(C)=CC(C)(C)N3)nc(C)c2c1", "note": "[11a, 6-ethoxy-4-methylquinazoline-2-amino-dihydro-trimethylpyrimidine]", "values": [
      {"measurement": "effect on IFNγ-induced activation of the STAT1 pathway", "setting": "[2]; at 50 μM", "result": "no effect"},
      {"measurement": "inhibition at 50 µM", "setting": "[2]", "result": "< 50", "unit": "%"},
      {"measurement": "IC50", "setting": "[3]; read-out: anti-proliferative activities IC50's", "result": "17 to 37", "unit": "µM"},
      {"measurement": "activity against a panel of >80 kinases", "setting": "panel of >80 kinases", "result": "did not exhibit any significant activity"},
      {"measurement": "effects on pJAK1/JAK1", "setting": "JAK1", "result": "no effects; also recorded: did not show any effects"},
      {"measurement": "effects on pJAK2/JAK2", "setting": "JAK2", "result": "no effects; also recorded: did not show any effects"}
    ]},
    {"smiles": "CC(C)(C)c1nc2c3ccc(F)cc3c3c(=O)[nH]ccc3c2[nH]1", "note": "[compound 6, reference compound]", "values": [
      {"measurement": "potency against STAT1", "setting": "[2]", "result": "nanomolar potencies"},
      {"measurement": "potency against STAT3", "setting": "[1]", "result": "nanomolar potencies"}
    ]},
    {"smiles": "CCOc1ccc2c(C)nc(NC3=NC(C)=CC(C)(C)N3)nc2c1", "note": "[11d]", "values": [
      {"measurement": "inhibition at 50 µM", "setting": "[2]", "result": "< 50", "unit": "%"}
    ]},
    {"smiles": "CC1=CC(C)(C)N=C(Nc2nc(C)c3cc(C)cc(C)c3n2)N1", "note": "[11c]", "values": [
      {"measurement": "potency against STAT3", "setting": "[1]; summary b20", "result": "low-micromolar potency"},
      {"measurement": "improvement in STAT3 inhibition", "setting": "[1]; versus 11a", "result": 20, "unit": "fold"},
      {"measurement": "IC50", "setting": "[3]; [4]", "result": "1 to 50", "unit": "µM"}
    ]},
    {"smiles": "Cc1cc2nc(Nc3nc(=O)c(C)c(C)[nH]3)nc(C)c2cc1C", "note": "[19n]", "values": [
      {"measurement": "selectivity against pSTAT1", "setting": "[1]", "result": "≥ 3", "unit": "fold"}
    ]},
    {"smiles": "Cc1nc(Nc2nc(=O)cc(-c3ccccc3)[nH]2)nc2cc3c(cc12)OCO3", "note": "[19q]", "values": [
      {"measurement": "SI (STAT1/STAT3), selectivity index ratio", "setting": "[1]", "result": ">3"}
    ]}
  ]
}
